Drawing on patent US6846625B1, “Method for identifying validated target and assay combination for drug development” (priority 1998, dated 2005), this text covers IC50, Ki and solubility for 1 compound.

Peptide text beside a SMILES is read from it.

Data set [1] has as its target Sa MetRS (Staphylococcus aureus, UniProt Q5HII6). Description: Sa MetRS/Met1-F fluorescence polarization binding assay. The procedure:
A non-radioactive, homogeneous, sensitive fluorescent polarization (FP) assay has been developed for Staphylococcus aureus MetRS (Sa MetRS) and Met1 peptide. FP is a ratiometric detection method which is capable of discriminating between free and bound states of fluorescently labeled tracer based on differences in the rotation rates of the two states. The Sa MetRS FP binding assay involves the incubation of fluorescently labeled Met1 peptide (Met1-F) with purified Sa MetRS. In the bound state, Met1-F is bound to Sa MetRS and an increase in polarization signal is detected using a FP detection system. In the free state, Met1-F is not bound to Sa MetRS and there is a decrease in polarization signal.
A 96-well plate (Costar cat# 3915) was blocked for 1 hour at room temperature with 150 μL/well 2 mg/ml bovine serum albumin (BSA) (FisherBiotech cat# BP1600-100) in 0.1 M NaHCO3. The plate was then washed manually three times with 150 μL/well of TBS (10 mM Tris-HCl pH 8.0, 150 mM NaCl). […] The plate was then read in an LJL Analyst (LJL Biosystems, Sunnyvale Calif.) in fluorescent polarization mode.
The FP assay for Sa MetRS inhibition has been evaluated to see if it is amenable for high throughput screening (HTS) for drug discovery. […] The IC50 for Met1 was tested on the plate in duplicate and the results were consistent with previously determined values. […]
(In general: Fluorescence polarisation rises when a labelled molecule tumbles more slowly, as on binding a larger partner.)

The target of data set [2] is S. aureus MetRS (Staphylococcus aureus, UniProt Q5HII6). The data set is described as follows: S. aureus MetRS aminoacylation (functional charging) assay. Type of data set: biochemical. The procedure: The activity of S. aureus MetRS was monitored by the aminoacylation reaction. The enzyme was diluted in 50 mM HEPES, pH 7.55, 5 mM DTT and 0.01% BSA. A typical 50 μL reaction mixture contained 30 mM HEPES, pH 7.5, 10 mM MgCl2, 30 mM KCl, 90 μM E. coli tRNA, 2 mM ATP and 5 μM [^3H]-methionine (10 Ci/mmol). The reaction was initiated by addition of enzyme at 25° C. At 4 different timepoints, 10 μL of the reaction was quenched into 150 μL cold 5% TCA on a Millipore filter plate. The filter plate is then washed three times with cold 5% TCA followed by water and then ethanol. The filter plate was dried before addition of 100 μL Packard Microscint-20 and counted on a Packard Top-Count microplate scintillation counter.
S. aureus MetRS, sequence (Q5HII6 whole entry): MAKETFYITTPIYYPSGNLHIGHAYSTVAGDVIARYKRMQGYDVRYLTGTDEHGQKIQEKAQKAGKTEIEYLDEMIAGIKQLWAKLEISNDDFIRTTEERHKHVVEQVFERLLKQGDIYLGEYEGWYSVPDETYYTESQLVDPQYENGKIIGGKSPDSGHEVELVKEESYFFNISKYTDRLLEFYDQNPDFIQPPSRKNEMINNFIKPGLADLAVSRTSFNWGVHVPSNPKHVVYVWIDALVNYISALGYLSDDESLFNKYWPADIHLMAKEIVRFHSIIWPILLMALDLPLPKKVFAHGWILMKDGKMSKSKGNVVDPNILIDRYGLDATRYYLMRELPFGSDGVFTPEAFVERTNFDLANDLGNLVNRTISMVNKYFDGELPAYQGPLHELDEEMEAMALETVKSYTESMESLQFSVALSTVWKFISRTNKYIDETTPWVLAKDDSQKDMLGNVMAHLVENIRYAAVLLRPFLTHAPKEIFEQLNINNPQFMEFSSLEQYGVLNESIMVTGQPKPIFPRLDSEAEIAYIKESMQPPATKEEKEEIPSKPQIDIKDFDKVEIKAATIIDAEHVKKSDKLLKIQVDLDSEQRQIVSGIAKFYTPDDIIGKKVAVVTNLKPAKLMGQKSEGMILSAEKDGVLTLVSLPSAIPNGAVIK
Inhibition studies were performed for the peptides against two of the substrates, ATP and methionine. This was done at varying concentrations of peptides by holding the concentration of one substrate at its K value (1.5 mM for ATP and 5 μM for methionine), while varying the other substrate concentration around its Km value. The initial velocity data obtained were then analyzed using GraFit.

Usually IC50 stands for the midpoint of a concentration-inhibition curve. A high value points to lower potency. By Ki is commonly meant a measure of affinity in units of concentration, obtained from inhibition or displacement. Higher therefore signals lower affinity. For orientation: solubility means the concentration that dissolves in the medium under given conditions. Read a low solubility as a poorly soluble substance.

Sa MetRS, sequence (Q5HII6 whole entry): as above

Compound `CSCC[C@H](NC(=O)[C@@H]1CCCN1C(=O)[C@H](Cc1c[nH]c2ccccc12)NC(=O)[C@H](CCCNC(=N)N)NC(=O)[C@H](CC(C)C)NC(=O)[C@H](CCC(N)=O)NC(=O)[C@H](Cc1c[nH]c2ccccc12)NC(=O)[C@@H](NC(=O)[C@H](CC(N)=O)NC(=O)[C@@H]1CCCN1C(=O)[C@@H](N)CC(=O)O)[C@@H](C)O)C(=O)N[C@@H](Cc1c[nH]cn1)C(=O)O` [JT01, DPNTWQLRWPMH] (H-DPNTWQLRWPMH-OH; N-terminus and C-terminus assumed) yielded a solubility greater than 100 µM. Besides, in data set [1], the concentration for half-maximal inhibition (IC50) stood at 0.7 µM. In addition, it took 0.2 µM to reach half-maximal inhibition in data set [2] (IC50). This compound showed a Ki in data set [2] (Kl (ATP), ATP varied, methionine held at 5 μM) of 0.013 µM. This compound gave an inhibitory constant (Ki) in data set [2] (Kl (methionine), methionine varied, ATP held at 1.5 mM) of 0.138 µM.
